Measured values reported in patent US20020123524A1, “Treatment of vascular events using lipid-modifying compositions” (priority 1998, published 2002).

Legend:
[1] = VA-HIT subgroup analysis: diabetes and hyperinsulinemia, CHD and stroke events, mortality; assay type: in vivo, men; parameters: Overall Risk Reduction with Gemfibrozil (cardiovascular or cerebrovascular event) / Overall Risk Reduction with Gemfibrozil: concentration or dose not given beside the values; conditions: for Five Year Event Rate, Stroke / Five Year Event Rate, CHD: Gemfibrozil Group
Description: Determining whether an individual has Type 2 diabetes and/or hyperinsulinemia can be done using assays that are well known in the art. Several assays are commercially available. The levels that define whether an individual has Type 2 diabetes or hyperinsulinemia vary depending on the type of assay used. An example of an assay that can measure glucose tolerance or glucose levels is one that uses glucose oxidase as a reagent. Using such a test, levels of fasting glucose of greater than or equal to about 126 mg/dL characterize a type 2 diabetic. An assay referred to as “Coat-A-Count” (Diagnostic Products, Los Angeles, Calif.) is an example of an assay that measures insulin. Levels of fasting insulin above about 40 μU/mL using the Coat-A-Count assay are levels that characterize an individual with hyperinsulinemia. For the data described in Example 2, insulin resistance (hyperinsulinemia) was defined by the levels of insulin determined in the Framingham Offspring Population. Meigs J B, et al., Metabolic Risk Factors Worsen Continuously Across the Spectrum of Nondiabetic Glucose Tolerance, The Framingham Offspring Study. Ann Intern Med 128:524-533 (1998). Subjects, described in Example 2, were designated as diabetic by having a history of diabetes or a fasting plasma glucose of about 126 mg/dL or greater and as being hyperinsulinemic with a fasting plasma insulin of about 40 μU/mL or greater. This value of insulin marked the 90th percentile of values for subjects with normal glucose tolerance in the Framingham Offspring Study. This value also corresponded to the level of insulin at which there was a significant increase in CHD events in Example 2.
Fibric acid decreases incidence of vascular events in diabetic patients (e.g., events that cause the heart to have irregular rhythms such as ventricular fibrillation, ventricular tachycardia, asystole, and includes, for example, myocardial infarction, angina, and death).
Diabetes mellitus (DM) has long been recognized as a major risk factor for a vascular atherothrombotic event, most particularly coronary heart disease and cerebrovascular disease. […] Although patients with DM were not singled out as a specific recruitment target (i.e., not a specific target for fibrate therapy in VA-HIT), patients with DM frequently have a low HDL-C and, thus, were clearly eligible for VA-HIT and treatment with the fibrate, genfibrozil.
Thus, 31% of VA-HIT patients had diabetes. […] There is evidence that patients with high insulin levels (i.e., patients with “hyperinsulinemia” or “insulin resistance”) but without overt DM have as high a risk of coronary heart disease as is associated with DM itself. Consequently, 47% of patients in VA-HIT had either DM or hyperinsulinemia and in this large subgroup of patients, both coronary heart disease (CHD) events and stroke were higher than in the remainder of VA-HIT patients and the benefit of fibrate therapy was greater.

[2] = VA-HIT trial: CHD death, nonfatal MI, stroke and other clinical endpoints, adverse events; assay type: in vivo; conditions: for Relative risk reduction, CHD death/nonfatal MI (heart attacks and cardiac deaths): primary endpoint, p=0.0063
Description: (§1) This study, the Veterans Administration HDL-C Intervention Trial (VA-HIT), was a seven year, 20 center, randomized, placebo-controlled, double blind secondary prevention trial designed to determine if a fibric acid (e.g., gemfibrozil) reduced the incidence of myocardial infarction (MI) and CHD death in male patients who have low levels of both HDL-C and LDL-C. […] Primary endpoints and the secondary endpoint, stroke, were adjudicated by blinded committees using standard criteria. Gemfibrozil (1200mg/day, orally) was selected with the goal of raising HDL-C and lowering triglycerides (TG) without affecting LDL-C.
(§2) “Low HDL-C” was defined as less than 40 mg/dL and “low LDL-C” was defined as less than 140 mg/dL values which are based on the entrance lipid criteria for the population enrolled in VA-HIT. With these lipid criteria, the mean entrance value at baseline of HDL-C was 32 mg/dL and of LDL-C was 111 mg/dL.
(§3) 2531 patients were enrolled and followed for a median of 5 years. Compliance, lipid changes, endpoints rates, losses to follow-up, and crossovers to active treatment have been consistent with the original projections. At baseline, the mean age was 64 yrs; average lipid values were, in mg/dL: HDL-C 32; TG 161; LDL-C 111; total cholesterol 176. (For comparison, the mean baseline LDL-C in recent major secondary prevention trials was 189 in the Scandinavian Simvastatin Survival Study, 139 in the Cholesterol and Recurrent Events study, and 150 in the Long-Term Intervention with Pravastatin in Ischemic Disease study). The mean body mass index was 29±5. The prevalence of diabetes was 31% and of hypertension 57%. Aspirin and beta blockers were used by 82%, and 43% of patients, respectively.
(§4) VA-HIT was a major clinical trial to investigate whether lipid therapy benefits people with heart disease whose primary lipid abnormality is a low level of HDL-C. The VA-HIT study enrolled 2531 male veterans with heart disease who had low levels of LDL-C cholesterol and low levels of HDL-C cholesterol. The average LDL-C level was 111 mg/dL and HDL-C was 32 mg/dL. Patients were randomly assigned to receive either gemfibrozil or a placebo.
The reduction in the incidence or severity of vascular disease was determined by comparing data from individuals undergoing the methods of the present invention to those who were not. Data regarding the incidence or occurrence of a vascular event including death were obtained from control patients having the same or similar disease states under the same or similar conditions as the individual undergoing the methods of the present invention. The control patient received a placebo, as opposed to the test patients who received the lipid modifying drug.
(§5) 2531 men with CHD enrolled in trial 1991-1993. The trial ended 7/31/98 with median follow-up of 5.1 years. Vital status of patients known is 99.2%. 71% remained on assigned therapy at end of trial which is about the average in a long trial.

[3] = VA-HIT trial: percent change in plasma lipids with gemfibrozil vs placebo; assay type: in vivo, men; conditions: for Effect on HDL-C level (in words): compared to controls treated with placebo
Protocol: Lipoproteins levels and triglyceride levels are measured and assessed using routine methods known in the art. Commercially available kits and assays may be used to evaluate the level of HDL-C, LDL-C and level of triglyceride.
as §1, §2, §3, §4, §5

[4] = gemfibrozil 1200 mg/day orally, men with CHD, low HDL-C and low LDL-C, statistically significant difference vs placebo

Cc1ccc(C)c(OCCCC(C)(C)C(=O)O)c1 [Gemfibrozil, 5-(2,5-dimethylphenoxy)-2,2-dimethylpentanoic acid]
RRR (relative risk reduction with gemfibrozil), All-Cause Mortality ([1]; Diabetes + Hyperinsulinemia alone, N 1157, P 0.021): 26%
RRR (relative risk reduction with gemfibrozil), CHD Death ([1]; Diabetes, N 769, P 0.016): 41%
RRR (relative risk reduction with gemfibrozil), All-Cause Mortality ([1]; Diabetes, N 769, P 0.059): 25%
Five Year Event Rate, Stroke ([1]; subgroup All Others, placebo 4.0): 3.2%
Five Year Event Rate, CHD ([1]; subgroup All Others, placebo 16.6): 15.3%
Five Year Event Rate, Stroke ([1]; subgroup Diabetes, placebo 10.5): 6.6%
Five Year Event Rate, CHD ([1]; subgroup Diabetes, placebo 29.4): 21.2%
Five Year Event Rate, Stroke ([1]; subgroup Hyperinsulinemia (includes hyperinsulinemia + diabetes), placebo 8.1): 6.2%
Five Year Event Rate, CHD ([1]; subgroup Hyperinsulinemia (includes hyperinsulinemia + diabetes), placebo 27.7): 20.9%
Five Year Event Rate, Stroke ([1]; subgroup Hyperinsulinemia alone, placebo 4.3): 4.7%
Five Year Event Rate, CHD ([1]; subgroup Hyperinsulinemia alone, placebo 23.1): 16.8%
5-year incidence rate of all-cause mortality (in words) ([1]; patients with DM and isolated hyperinsulinemia analysed together): significantly reduce
Overall Risk Reduction with Gemfibrozil ([1]; subgroup All Others): 10.3%
Overall Risk Reduction with Gemfibrozil (cardiovascular or cerebrovascular event) ([1]; subgroup Diabetes): 30.3%
Overall Risk Reduction with Gemfibrozil ([1]; subgroup Hyperinsulinemia (includes hyperinsulinemia + diabetes)): 24.2%
Overall Risk Reduction with Gemfibrozil ([1]; subgroup Hyperinsulinemia alone): 21.7%
Reduction of CHD death (in words) ([1]; subgroup of patients with DM and hyperinsulinemia): particularly effective
Effectiveness in subgroups (in words) ([2]; both diabetics and non-diabetics, younger as well as older patients): effective
New or recurrent CHD events, including nonfatal MI, CHD death, certain forms of stroke or TIA (in words) ([2]; gemfibrozil 1200 mg/day): significant reduction
Primary endpoint CHD death/nonfatal MI, rate in treatment group ([2]; gemfibrozil 1200 mg/day, median follow-up 5.1 years, placebo 22%): 17%
Major adverse events (deaths from any cause and cancer monitored) ([2]; gemfibrozil 1200 mg/day, seven year study): not associated with any major adverse events
Incidence rate: carotid endarterectomy ([2]; gemfibrozil group, placebo 3.5%): 1.3%
Incidence rate: transient ischemia attack (TIA) ([2]; gemfibrozil group, placebo 4.2%): 1.7%
Incidence rate: total reported stroke ([2]; gemfibrozil group, placebo 7.0%): 5.0%
Incidence rate: hospitalization for congestive heart failure ([2]; gemfibrozil group, placebo 13.3%): 10.6%
Reduction in combined endpoint of heart attacks, cardiac deaths, and strokes ([2]; gemfibrozil vs placebo, p=0.0011): 24%
Relative risk reduction, CHD death/nonfatal MI (heart attacks and cardiac deaths) ([2]; gemfibrozil vs placebo, listed as GEMFIBROZIL): 22%
Relative risk reduction, CHD death/nonfatal MI (heart attacks and cardiac deaths) ([2]; gemfibrozil vs placebo, listed as gemfibrozil): 22%
Number of patients needed to be treated to prevent one heart attack, cardiac death, or stroke ([2]; over a time period (e.g., between 1 and 5 years)): 18 patients
Effect on HDL-C level (in words) [3]: significantly raised
Effect on HDL-C level (in words) ([3]; listed as gemfibrozil): significantly increased
Effect on LDL-C level (in words) ([3]; compared to placebo): did not lower
Effect on triglycerides (in words) ([3]; compared to placebo): lowered
Effect on LDL-C level (in words) ([3]; compared to placebo, listed as gemfibrozil): no effect
Percent change in Lipids: LDL-C ([3]; gemfibrozil 1200 mg/day orally, men with CHD, low HDL-C and low LDL-C, not marked significant): +3.6%
Percent change in Lipids: HDL-C [3, 4]: +7.5%
Percent change in Lipids: Triglycerides [3, 4]: −24.5%
Percent change in Lipids: total cholesterol [3, 4]: −2.9%
